From US6121269A, “Reduction of hair growth” (priority 1999, dated 2000)
Where two headings read alike, the source gives them in different places.

What was measured:
protein-tyrosine kinase = assay: Protein-Tyrosine Kinase Assay (human skin/hair follicle extract, Calbiochem kit); format: biochemical; details: inhibitor 1 mM, human skin supernatant fraction
Method: Protein-tyrosine kinase activity was measured in human skin samples rich in hair follicles using a commercially available assay kit (Calbiochem). Human skin obtained from a local plastic surgeon as a by-product of face-lift procedures was homogenized in four volumes of the extraction buffer containing 20 mM Tris-HCL, pH7.4, 50 mM NaCl, 1 mM EDTA, 1 mM EGTA, 5 mM mercaptoethanol. The samples were centrifuged for 10 min at 16,000×g to remove the membrane/organelle fractions. The supernatant fraction was used for the tyrosine kinase assay. Adding 25 ml of the 20× concentrated solution to 475 ml of deionized water and mixing made a working solution of plate wash buffer. The kinase buffer was prepared by adding 50 ul/ml of the 2 mM ATP stock solution to 1× sample buffer without 2-mercatoethanol. (90 ul of the kinase buffer/well).For the enzyme assay, 10 ul of each sample was added to a well. 10 ul of Abl standard, as positive controls, were added to a well. The kinase reaction was started by adding 90 ul of 1× kinase buffer/well and incubated at room temp for 30 minutes. The contents of each well was washed six times with 1× wash buffer, 100 ul of PY20 antibody diluted 1:200 with 1× Sample/kinase reaction buffer (without ATP) (15 ul to 3 ml) were added and the combination incubated for 30 minutes. The test solutions were washed with wash buffer, and 100 ul of substrate solution were added to each and incubated in the dark for 6 minutes. 100 ul of stop solution were added, and the UV absorbance read at 450 nm. The increase in UV absorbance at 450 nm provided a measure of the enzyme activity.
The ability of protein-tyrosine kinase inhibitors to inhibit the skin/hair follicle enzyme activity was determined by measuring protein-tyrosine kinase activity in the presence and absence of the inhibitor. For enzyme inhibition studies, the inhibitor was added to the reaction mixture at a concentration of 1 mM following addition of the enzyme sample.

human hair follicles = assay: Human Hair Follicle Growth Assay; format: cell-based
Method: Human hair follicles in growth phase (anagen) were isolated from face-lift tissue under a dissecting scope using a scalpel and watchmakers forceps. The skin was sliced into thin strips exposing 2-3 rows of follicles that could readily be dissected. […] Hair follicles were videorecorded in the 24-well plates under the dissecting scope under a power of 20×. Hair follicle lengths were assessed using an image analysis software system (Computer Eyes and NIH Image). Typically, initial recordings were made on day 0 (day follicles were placed in culture), and on days 1, 4, and 7.
The effect of five protein-tyrosine kinase inhibitors on human hair follicle growth was determined by exposing the isolated follicles to the enzyme inhibitors. The hair follicle lengths were determined before and after the inhibitor treatment.
In another experiment isolated hair follicles were exposed to either 1 mM or 0.01 mM concentration of the protein-tyrosine kinase inhibitor erbstatin, and the hair growth rate was compared to control. Measurements were made at days 0, 1 and 4.

[1] = isolated human follicles, inhibitor 500 μM
[2] = isolated human follicles, inhibitor 500 μM, vs control
[3] = isolated human follicles, inhibitor 250 μM
[4] = isolated human follicles, inhibitor 50 μM

## CO[C@H]1[C@@H](OC)C[C@H](C)[C@@H](OC)C2=CC(=O)C=C(NC(=O)/C(C)=C/C=C\[C@H](OC)[C@@H](OC(N)=O)/C(C)=C/[C@@H]1C)C2=O [Herbimycin, herbimycin A]
protein-tyrosine kinase
  % Inhibition (protein-tyrosine kinase activity): 37%

## N-acetyl-Asp-Tyr-(2-malonyl)-Val-Pro-Met-Leu-NH2
protein-tyrosine kinase
  % Inhibition (protein-tyrosine kinase activity): 83%

## N#CC(=Cc1ccc(O)cc1)C(N)=C(C#N)C#N [Tryphostin A48, 2-amino-4-(4'-hydroxyphenyl)-1,1,3-tricyanobuta-1,3-diene]
Human hair follicles; [1]
  Hair Growth: 0.1 mm
  Post-treatment hair follicle length: 3.3 ± .16 mm
Human hair follicles; [2]
  inhibition at 500 µM: 91%

## COc1cc2ncnc(Nc3cccc(Cl)c3)c2cc1OC [Tryphostin AG 1478, 4-(3-Chloroanilino)-6,7-dimethoxyquinazoline]
Human hair follicles; Homo sapiens, read-out: % Inhibition (hair growth)
  inhibition at 250 µM: 40%
Human hair follicles; [3]
  Hair Growth: 0.6 mm
  Post-treatment hair follicle length: 3.8 ± .19 mm

## O=CN/C=C/c1cc(O)ccc1O [Erbstatin, erbstatin]
Human hair follicles; 0.01 mM
  Posttreatment (Day-1) Growth: 0.1 mm
  Posttreatment (Day-1) Length: 3.1 ± .20 mm
  Posttreatment (Day-4) Growth: 0.8 mm
  Posttreatment (Day-4) Length: 3.8 ± .29 mm
Human hair follicles; 1 mM
  Posttreatment (Day-1) Growth: 0.0 mm
  Posttreatment (Day-1) Length: 3.0 ± .17 mm
  Posttreatment (Day-4) Growth: 0.3 mm
  Posttreatment (Day-4) Length: 3.3 ± .15 mm
Human hair follicles; Homo sapiens, 24 h, 0.01 mM, day 1, vs control, read-out: Posttreatment (Day-1) Inhibition
  inhibition at 10 µM: 83%
Human hair follicles; Homo sapiens, 24 h, 1 mM, day 1, vs control, read-out: Posttreatment (Day-1) Inhibition
  inhibition at 1000 µM: 100%
Human hair follicles; Homo sapiens, 96 h, 0.01 mM, day 4, vs control, read-out: Posttreatment (Day-4) Inhibition
  inhibition at 10 µM: 11%
Human hair follicles; Homo sapiens, 96 h, 1 mM, day 4, vs control, read-out: Posttreatment (Day-4) Inhibition
  inhibition at 1000 µM: 67%
Human hair follicles; [1]
  Hair Growth: 0.3 mm
  Post-treatment hair follicle length: 3.9 ± .10 mm
Human hair follicles; [2]
  inhibition at 500 µM: 73%

## CC(=O)OCOC(c1ccc2ccccc2c1)P(=O)(OCOC(C)=O)OCOC(C)=O (stereo not drawn) [HNMPA(AM)3, hydroxy-2-naphthalenylmethylphosphonic acid tris acetoxymethyl ester]
protein-tyrosine kinase
  % Inhibition (protein-tyrosine kinase activity): 66%

## N#CC(=Cc1ccc(O)c(O)c1)C(N)=S [Tryphostin A47, α-cyano-(3,4-dihydroxy)thiocinnamide]
protein-tyrosine kinase
  % Inhibition (protein-tyrosine kinase activity): 16%

## O=C(O)c1cc(N(Cc2ccccc2O)Cc2cc(O)ccc2O)ccc1O [Lavendustin A, lavendustin A]
Human hair follicles; [4]
  Hair Growth: 0 mm
  Post-treatment hair follicle length: 3.5 ± .12 mm
Human hair follicles; isolated human follicles, inhibitor 50 μM, vs control
  inhibition at 50 µM: 100%
protein-tyrosine kinase
  % Inhibition (protein-tyrosine kinase activity): 59%

## COC(=O)/C=C/c1ccc(O)c(O)c1 [methyl caffeate]
Human hair follicles; [1]
  Hair Growth: 0.6 mm
  Post-treatment hair follicle length: 4.1 ± .17 mm
Human hair follicles; [2]
  inhibition at 500 µM: 40%
protein-tyrosine kinase
  % Inhibition (protein-tyrosine kinase activity): 100%
